{
  "source": "paper PMC11268423",
  "about": "(Science Advances, 2024)",
  "key": {"[1]": {"test_system": "SARS-CoV-2 M^pro T304I mutant virus", "assay_type": "cell-based"}, "[2]": {"test_system": "SARS-CoV-2 M^pro T21I+S144A+T304I mutant virus", "assay_type": "cell-based"}, "[3]": {"test_system": "SARS-CoV-2 M^pro E166V", "details": "cited from earlier work"}, "[4]": {"test_system": "SARS-CoV-2 M^pro T21I", "details": "cited from earlier work"}, "[5]": {"test_system": "SARS-CoV-2 M^pro L50F", "details": "cited from earlier work"}, "[6]": {"test_system": "SARS-CoV-2 M^pro T304I", "details": "cited from earlier work"}},
  "note": "“And” between values parts separate entries of the source, which are not always exact repeats. Identical values can stand only once.",
  "data": [
    {"molecule": "CC(C)(C)[C@H](NC(=O)C(F)(F)F)C(=O)N1C[C@H]2[C@@H]([C@H]1C(=O)N[C@H](C#N)C[C@@H]1CCNC1=O)C2(C)C", "note": "[Nirmatrelvir]", "values": [
      {"measurement": "Fold over WA-1", "setting": "[1]", "result": 3.4, "unit": "fold"},
      {"measurement": "Fold over WA-1", "setting": "[2]", "result": "> 20 fold and 27.8 fold"},
      {"measurement": "fold resistance to nirmatrelvir in vitro", "setting": "[3]", "result": "up to 288 fold"},
      {"measurement": "fold resistance to nirmatrelvir", "setting": "[4]", "result": 4.6, "unit": "fold"},
      {"measurement": "fold resistance to nirmatrelvir", "setting": "[5]", "result": 4.2, "unit": "fold"},
      {"measurement": "fold resistance to nirmatrelvir", "setting": "[6]", "result": 5.5, "unit": "fold"}
    ]}
  ]
}
